Test results taken from PMC4367188 (ACS Chemical Neuroscience, 2015).

Columns and labels:
Assay in all cases: Lead Profiling Screen radioligand binding
Interleukin IL-1 = Interleukin IL-1 (Mus musculus, UniProt P13504)
Adrenergic α1A = Adrenergic α1A (Rattus norvegicus, UniProt P43140)
Muscarinic M2 = Muscarinic M2 (Homo sapiens, UniProt P08172)
Histamine, H2 = Histamine, H2 (Homo sapiens, UniProt P25021)
Histamine, H2, sequence (P25021 whole entry): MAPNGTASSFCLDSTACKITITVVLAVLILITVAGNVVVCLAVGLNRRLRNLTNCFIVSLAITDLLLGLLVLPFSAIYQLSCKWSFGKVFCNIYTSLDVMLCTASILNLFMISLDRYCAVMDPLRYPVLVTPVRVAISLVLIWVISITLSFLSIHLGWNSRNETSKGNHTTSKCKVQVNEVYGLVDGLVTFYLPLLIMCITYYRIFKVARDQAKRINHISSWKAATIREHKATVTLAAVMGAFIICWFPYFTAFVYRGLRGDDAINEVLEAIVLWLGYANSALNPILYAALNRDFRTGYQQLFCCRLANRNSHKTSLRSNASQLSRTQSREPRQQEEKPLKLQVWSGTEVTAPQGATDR

Muscarinic M2, sequence (P08172 whole entry): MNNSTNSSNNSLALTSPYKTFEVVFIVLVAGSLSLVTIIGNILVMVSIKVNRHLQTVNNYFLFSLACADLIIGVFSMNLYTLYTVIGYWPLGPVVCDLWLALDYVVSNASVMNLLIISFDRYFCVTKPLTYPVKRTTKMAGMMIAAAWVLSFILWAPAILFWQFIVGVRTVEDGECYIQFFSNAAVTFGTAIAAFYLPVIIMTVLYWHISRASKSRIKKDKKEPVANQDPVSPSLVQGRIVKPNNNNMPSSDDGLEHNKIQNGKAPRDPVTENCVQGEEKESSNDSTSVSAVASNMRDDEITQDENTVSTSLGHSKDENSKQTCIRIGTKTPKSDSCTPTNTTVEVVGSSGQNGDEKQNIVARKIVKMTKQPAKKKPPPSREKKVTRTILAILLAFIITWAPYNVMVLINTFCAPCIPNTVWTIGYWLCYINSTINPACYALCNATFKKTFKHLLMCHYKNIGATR
Interleukin IL-1, sequence (P13504 20-576): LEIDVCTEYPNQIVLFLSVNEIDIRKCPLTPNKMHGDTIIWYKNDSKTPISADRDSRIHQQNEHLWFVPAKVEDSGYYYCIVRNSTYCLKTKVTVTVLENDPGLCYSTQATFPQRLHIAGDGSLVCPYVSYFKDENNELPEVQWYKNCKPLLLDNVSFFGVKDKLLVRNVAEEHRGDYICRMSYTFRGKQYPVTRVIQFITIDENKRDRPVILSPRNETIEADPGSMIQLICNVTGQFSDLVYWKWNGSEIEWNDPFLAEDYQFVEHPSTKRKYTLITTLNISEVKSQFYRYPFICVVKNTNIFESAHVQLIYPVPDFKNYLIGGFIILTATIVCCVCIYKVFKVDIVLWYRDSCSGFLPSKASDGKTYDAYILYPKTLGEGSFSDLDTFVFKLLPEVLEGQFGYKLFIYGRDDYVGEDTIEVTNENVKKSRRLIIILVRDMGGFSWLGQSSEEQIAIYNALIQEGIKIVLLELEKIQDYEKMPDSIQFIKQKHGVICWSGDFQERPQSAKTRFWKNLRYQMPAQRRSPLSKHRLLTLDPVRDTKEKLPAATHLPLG
Adrenergic α1A, sequence (P43140 whole entry): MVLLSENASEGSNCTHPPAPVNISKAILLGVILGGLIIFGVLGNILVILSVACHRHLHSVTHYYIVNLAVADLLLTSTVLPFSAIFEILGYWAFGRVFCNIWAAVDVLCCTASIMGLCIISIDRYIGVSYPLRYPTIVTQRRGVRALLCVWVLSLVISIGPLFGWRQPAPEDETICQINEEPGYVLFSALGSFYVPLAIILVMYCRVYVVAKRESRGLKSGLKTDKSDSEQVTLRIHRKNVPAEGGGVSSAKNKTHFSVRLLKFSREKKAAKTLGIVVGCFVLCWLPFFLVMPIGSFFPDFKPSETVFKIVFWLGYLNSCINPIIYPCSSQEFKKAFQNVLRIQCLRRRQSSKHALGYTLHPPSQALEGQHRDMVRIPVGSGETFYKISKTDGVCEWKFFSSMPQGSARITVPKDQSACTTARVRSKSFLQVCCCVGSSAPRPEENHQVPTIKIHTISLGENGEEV

With `COc1ccc(C(=O)NCc2cc(C(C)C)no2)cc1OC1CCN(C)CC1` [ML352, N-((3-isopropylisoxazol-5-yl)methyl)-4-methoxy-3-((1-methylpiperidin-4-yl)oxy)benzamide] as the compound, how does the inhibition at 10 µM (Interleukin IL-1) read?
The inhibition at 10 µM was -2%.

What about the inhibition at 10 µM (Adrenergic α1A) of the same compound?
Its inhibition at 10 µM is 23%.

And the inhibition at 10 µM (Muscarinic M2)?
Its inhibition at 10 µM is 12%.

What about the inhibition at 10 µM (Histamine, H2) of the same compound?
The inhibition at 10 µM was 20%.
